Measurements: ChEMBL document CHEMBL1201862, “PubChem BioAssay data set” (2004)
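All cell lines were grown in 96-well plates and treated with compound for 48 hours. GI50 = concentration required for 50% inhibition of growth.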 The source made the active and inactive calls. No stated cut-off is given here; in the data, active = GI50 up to about 1.1 µM and inactive = higher.

Key:
Experiment in all cases: inhibition of tumour cell growth, NCI panel, 48 h
COLO 205 = system: COLO 205
A549 = system: A549
HT-29 = system: HT-29
DU-145 = system: DU-145
OVCAR-8 = system: OVCAR-8
HCT-15 = system: HCT-15
SNB-19 = system: SNB-19
RPMI-8226 = system: RPMI-8226
NCI/ADR-RES = system: NCI/ADR-RES
SN12C = system: SN12C
UACC-62 = system: UACC-62
SF-268 = system: SF-268
SF-295 = system: SF-295
NCI-H460 = system: NCI-H460
SW-620 = system: SW-620
SR = system: SR
ACHN = system: ACHN
LOX IMVI = system: LOX IMVI
MCF7 = system: MCF7
PC-3 = system: PC-3
MDA-MB-231 = system: MDA-MB-231
A498 = system: A498
EKVX = system: EKVX
MDA-MB-435 = system: MDA-MB-435
OVCAR-3 = system: OVCAR-3
HOP-62 = system: HOP-62
SF-539 = system: SF-539
K562 = system: K562
KM12 = system: KM12
UO-31 = system: UO-31
CAKI-1 = system: CAKI-1
BT-549 = system: BT-549
OVCAR-5 = system: OVCAR-5
MOLT-4 = system: MOLT-4
SK-MEL-5 = system: SK-MEL-5
U-251 = system: U-251
SK-OV-3 = system: SK-OV-3
NCI-H522 = system: NCI-H522
Hs-578T = system: Hs-578T
HCC 2998 = system: HCC 2998
TK-10 = system: TK-10
RXF 393 = system: RXF 393
UACC-257 = system: UACC-257
SK-MEL-2 = system: SK-MEL-2
SK-MEL-28 = system: SK-MEL-28
IGROV-1 = system: IGROV-1
T47D = system: T47D
MDA-N = system: MDA-N
NCI-H23 = system: NCI-H23
OVCAR-4 = system: OVCAR-4
Malme-3M = system: Malme-3M
786-0 = system: 786-0
CCRF-CEM = system: CCRF-CEM
HCT-116 = system: HCT-116
M14 = system: M14
HL-60 = system: HL-60
SNB-75 = system: SNB-75
HOP-92 = system: HOP-92
NCI-H226 = system: NCI-H226

CCOC(=O)c1nnc2c(C#N)c(-c3ccccc3)c(C)n2c1N
GI50 (COLO 205): 32.9 µM (inactive)
GI50 (A549): 39.9 µM (inactive)
GI50 (HT-29): 33.7 µM (inactive)
GI50 (DU-145): 83.9 µM (inactive)
GI50 (OVCAR-8): 28.4 µM (inactive)
GI50 (HCT-15): 37.5 µM
GI50 (SNB-19): 21.3 µM (inactive)
GI50 (RPMI-8226): 22.7 µM (inactive)
GI50 (NCI/ADR-RES): 38.8 µM (inactive)
GI50 (SN12C): 37.8 µM (inactive)
GI50 (UACC-62): 23.9 µM (inactive)
GI50 (SF-268): 37.7 µM (inactive)
GI50 (SF-295): 34.1 µM (inactive)
GI50 (NCI-H460): 39.8 µM (inactive)
GI50 (SW-620): 40.6 µM (inactive)
GI50 (SR): 36.1 µM (inactive)
GI50 (ACHN): 29.9 µM (inactive)
GI50 (LOX IMVI): 34.7 µM (inactive)
GI50 (MCF7): 39.4 µM (inactive)
GI50 (PC-3): 82.4 µM (inactive)
GI50 (MDA-MB-231): 51.8 µM (inactive)
GI50 (A498): 26.8 µM (inactive)
GI50 (EKVX): 38 µM (inactive)
GI50 (MDA-MB-435): 32 µM (inactive)
GI50 (OVCAR-3): 29.4 µM (inactive)
GI50 (HOP-62): 85.7 µM (inactive)
GI50 (SF-539): 30.9 µM (inactive)
GI50 (K562): 31.8 µM (inactive)
GI50 (KM12): 30.6 µM (inactive)
GI50 (UO-31): 33.4 µM (inactive)
GI50 (CAKI-1): 52.6 µM (inactive)
GI50 (BT-549): 40.4 µM (inactive)
GI50 (OVCAR-5): > 100 µM (inactive)
GI50 (MOLT-4): 30.5 µM (inactive)
GI50 (SK-MEL-5): 39.9 µM (inactive)
GI50 (U-251): 38 µM (inactive)
GI50 (SK-OV-3): 23.9 µM (inactive)
GI50 (NCI-H522): 27.7 µM (inactive)
GI50 (Hs-578T): 24.6 µM (inactive)
GI50 (HCC 2998): 32.5 µM (inactive)
GI50 (TK-10): 37 µM (inactive)
GI50 (RXF 393): 98.4 µM (inactive)
GI50 (UACC-257): 25.4 µM (inactive)
GI50 (SK-MEL-2): 42.4 µM (inactive)
GI50 (SK-MEL-28): 21.6 µM (inactive)
GI50 (IGROV-1): 22.2 µM (inactive)
GI50 (T47D): 53.7 µM (inactive)
GI50 (MDA-N): 27 µM (inactive)
GI50 (NCI-H23): 38.3 µM (inactive)
GI50 (OVCAR-4): 10.9 µM (inactive)
GI50 (Malme-3M): 20.7 µM (inactive)
GI50 (786-0): 56.1 µM (inactive)
GI50 (CCRF-CEM): 39.7 µM (inactive)
GI50 (HCT-116): 42.2 µM (inactive)
GI50 (M14): 34.9 µM (inactive)

Oc1ccccc1CNCc1ccccc1O
GI50 (COLO 205): 34 µM (inactive)
GI50 (A549): > 100 µM (inactive)
GI50 (HT-29): > 100 µM (inactive)
GI50 (DU-145): > 100 µM (inactive)
GI50 (OVCAR-8): > 100 µM (inactive)
GI50 (HCT-15): > 100 µM
GI50 (SNB-19): > 100 µM (inactive)
GI50 (RPMI-8226): 32.7 µM (inactive)
GI50 (NCI/ADR-RES): > 100 µM (inactive)
GI50 (HL-60): > 100 µM (inactive)
GI50 (SN12C): > 100 µM (inactive)
GI50 (UACC-62): > 100 µM (inactive)
GI50 (SF-268): > 100 µM (inactive)
GI50 (SF-295): > 100 µM (inactive)
GI50 (NCI-H460): 78.5 µM (inactive)
GI50 (SW-620): > 100 µM (inactive)
GI50 (ACHN): > 100 µM (inactive)
GI50 (LOX IMVI): 65.2 µM (inactive)
GI50 (MCF7): > 100 µM (inactive)
GI50 (PC-3): > 100 µM (inactive)
GI50 (MDA-MB-231): > 100 µM (inactive)
GI50 (A498): > 100 µM (inactive)
GI50 (EKVX): > 100 µM (inactive)
GI50 (MDA-MB-435): 54.3 µM (inactive)
GI50 (OVCAR-3): > 100 µM (inactive)
GI50 (HOP-62): > 100 µM (inactive)
GI50 (SF-539): 56.1 µM (inactive)
GI50 (K562): 39.6 µM (inactive)
GI50 (KM12): > 100 µM (inactive)
GI50 (UO-31): 90.2 µM (inactive)
GI50 (CAKI-1): > 100 µM (inactive)
GI50 (SNB-75): > 100 µM (inactive)
GI50 (BT-549): > 100 µM (inactive)
GI50 (OVCAR-5): > 100 µM (inactive)
GI50 (MOLT-4): 88.5 µM (inactive)
GI50 (SK-MEL-5): 46.9 µM (inactive)
GI50 (HOP-92): 99.5 µM (inactive)
GI50 (U-251): > 100 µM (inactive)
GI50 (SK-OV-3): > 100 µM (inactive)
GI50 (NCI-H522): > 100 µM (inactive)
GI50 (Hs-578T): 39 µM (inactive)
GI50 (HCC 2998): 19.2 µM (inactive)
GI50 (TK-10): > 100 µM (inactive)
GI50 (RXF 393): > 100 µM (inactive)
GI50 (UACC-257): > 100 µM (inactive)
GI50 (SK-MEL-2): > 100 µM (inactive)
GI50 (NCI-H226): > 100 µM (inactive)
GI50 (SK-MEL-28): > 100 µM (inactive)
GI50 (IGROV-1): > 100 µM (inactive)
GI50 (T47D): > 100 µM (inactive)
GI50 (MDA-N): 39.8 µM (inactive)
GI50 (NCI-H23): > 100 µM (inactive)
GI50 (OVCAR-4): > 100 µM (inactive)
GI50 (Malme-3M): > 100 µM (inactive)
GI50 (786-0): > 100 µM (inactive)
GI50 (CCRF-CEM): 59.2 µM (inactive)
GI50 (HCT-116): > 100 µM (inactive)
GI50 (M14): > 100 µM (inactive)
